Reference: ChEMBL document CHEMBL2407026, “11β-HSD1 inhibitors from Walsura cochinchinensis” (J Nat Prod, 2013)

Molecular target: 11-beta-hydroxysteroid dehydrogenase 1 (Mus musculus) (UniProt P50172)
Assay: Inhibition of mouse microsomal 11beta-HSD1 overexpressed in HEK293 cells using [3H]-cortisone as substrate assessed as formation of [3H]-cortisol at 10 uM by scintillation proximity assay in presence of NADPH relative to control

11-beta-hydroxysteroid dehydrogenase 1 (Mus musculus), sequence (P50172 whole entry, looked up): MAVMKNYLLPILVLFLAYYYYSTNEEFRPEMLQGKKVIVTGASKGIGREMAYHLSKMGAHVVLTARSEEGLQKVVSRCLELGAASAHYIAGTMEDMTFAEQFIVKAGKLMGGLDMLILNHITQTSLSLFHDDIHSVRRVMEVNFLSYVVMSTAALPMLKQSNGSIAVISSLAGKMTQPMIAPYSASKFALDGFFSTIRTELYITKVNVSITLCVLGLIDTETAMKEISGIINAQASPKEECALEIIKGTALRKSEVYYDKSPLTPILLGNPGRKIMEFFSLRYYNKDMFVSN

| SMILES | inhibition |
| --- | --- |
| CC(C)(O)[C@@H](O)[C@H]1C[C@@H]([C@@H]2CC[C@]3(C)C4=CC[C@H]5C(C)(C)[C@@H](O)CC[C@]5(C)[C@H]4CC[C@@]23C)C(=O)O1 | > 60% |
| CC(C)=CC(=O)[C@@H](O)[C@H](C)[C@@H]1CC[C@]2(C)C3=CC[C@H]4C(C)(C)[C@H](O)CC[C@]4(C)[C@H]3C[C@@H](O)[C@@]12C | 45% |
| CC(C)=CC(=O)[C@@H](O)[C@H](C)[C@@H]1CC[C@]2(C)C3=CC[C@H]4C(C)(C)[C@@H](O)CC[C@]4(C)[C@H]3C[C@@H](O)[C@@]12C | > 60% |

Molecular target: T1, 11-beta-hydroxysteroid dehydrogenase 1 (Homo sapiens, UniProt P28845)
Assay: Inhibition of human microsomal 11beta-HSD1 overexpressed in HEK293 cells using [3H]-cortisone as substrate assessed as formation of [3H]-cortisol by scintillation proximity assay in presence of NADPH
Target sequence in this assay (P28845 whole entry): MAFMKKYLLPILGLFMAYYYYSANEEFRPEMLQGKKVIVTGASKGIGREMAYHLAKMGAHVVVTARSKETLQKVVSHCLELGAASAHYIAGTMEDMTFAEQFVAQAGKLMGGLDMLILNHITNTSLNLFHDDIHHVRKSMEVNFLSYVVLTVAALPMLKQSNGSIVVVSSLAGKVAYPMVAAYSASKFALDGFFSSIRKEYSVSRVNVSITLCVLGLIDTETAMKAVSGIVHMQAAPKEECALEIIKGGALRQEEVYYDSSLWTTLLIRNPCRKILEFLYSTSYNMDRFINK

| SMILES | IC50 |
| --- | --- |
| CC(C)(O)[C@@H](O)[C@H]1C[C@@H]([C@@H]2CC[C@]3(C)C4=CC[C@H]5C(C)(C)[C@@H](O)CC[C@]5(C)[C@H]4CC[C@@]23C)C(=O)O1 | 3.2 µM |
| CC(C)=CC(=O)[C@@H](O)[C@H](C)[C@@H]1CC[C@]2(C)C3=CC[C@H]4C(C)(C)[C@@H](O)CC[C@]4(C)[C@H]3C[C@@H](O)[C@@]12C | 3.74 µM |
| CCC(C)C(=O)O[C@@H]1C[C@H]2C(C)(C)C(=O)C=C[C@]2(C)[C@H]2[C@@H](OC(C)=O)C[C@]3(C)C(=CC(=O)[C@H]3c3ccoc3)[C@@]21C (relative stereo) | 11.4 µM |

Molecular target: 11-beta-hydroxysteroid dehydrogenase 1 (Mus musculus, UniProt P50172)
Sequence (P50172 whole entry): as the sequence (P50172 whole entry, looked up) above
Assay: Inhibition of mouse microsomal 11beta-HSD1 overexpressed in HEK293 cells using [3H]-cortisone as substrate assessed as formation of [3H]-cortisol by scintillation proximity assay in presence of NADPH

| SMILES | IC50 |
| --- | --- |
| CC(C)(O)[C@@H](O)[C@H]1C[C@@H]([C@@H]2CC[C@]3(C)C4=CC[C@H]5C(C)(C)[C@@H](O)CC[C@]5(C)[C@H]4CC[C@@]23C)C(=O)O1 | 0.82 µM |
| CC(C)=CC(=O)[C@@H](O)[C@H](C)[C@@H]1CC[C@]2(C)C3=CC[C@H]4C(C)(C)[C@@H](O)CC[C@]4(C)[C@H]3C[C@@H](O)[C@@]12C | 1.15 µM |

Molecular target: T1, 11-beta-hydroxysteroid dehydrogenase 1
Assay: Inhibition of human microsomal 11beta-HSD1 overexpressed in HEK293 cells using [3H]-cortisone as substrate assessed as formation of [3H]-cortisol at 10 uM by scintillation proximity assay in presence of NADPH relative to control
Target sequence in this assay (P28845 whole entry, looked up): as the sequence (P28845 whole entry) above

| SMILES | inhibition |
| --- | --- |
| CC(C)(O)[C@@H](O)[C@H]1C[C@@H]([C@@H]2CC[C@]3(C)C4=CC[C@H]5C(C)(C)[C@@H](O)CC[C@]5(C)[C@H]4CC[C@@]23C)C(=O)O1 | > 60% |
| CC(C)=CC(=O)[C@@H](O)[C@H](C)[C@@H]1CC[C@]2(C)C3=CC[C@H]4C(C)(C)[C@H](O)CC[C@]4(C)[C@H]3C[C@@H](O)[C@@]12C | 45% |
| CC(C)=CC(=O)[C@@H](O)[C@H](C)[C@@H]1CC[C@]2(C)C3=CC[C@H]4C(C)(C)[C@@H](O)CC[C@]4(C)[C@H]3C[C@@H](O)[C@@]12C | > 60% |
| CCC(C)C(=O)O[C@@H]1C[C@H]2C(C)(C)C(=O)C=C[C@]2(C)[C@H]2[C@@H](OC(C)=O)C[C@]3(C)C(=CC(=O)[C@H]3c3ccoc3)[C@@]21C (relative stereo) | > 50% |
